Data: ChEMBL document CHEMBL5120822, “Inhibition of the P2X7/NLRP3 Inflammasome Signaling Pathway by Deacetylgedunin from Toona sinensis” (J Nat Prod, 2022)
The source made the active and inactive calls. The rule behind the calls is not given here.

Experiments:
RAW264.7 [1] = experiment: Cytotoxicity against mouse RAW264.7 cells derived macrophage assessed as reduction in cell viability upto 40 uM incubated for 24 hrs by CCK-8 assay; type: toxicity, cell-based; conditions: raw264.7, 24 h
J774.1 = experiment: Cytotoxicity against mouse J774.1 cells derived macrophage assessed as reduction in cell viability upto 40 uM incubated for 24 hrs by CCK-8 assay; type: toxicity, cell-based; conditions: j774.1, 24 h
THP-1 [2] = experiment: Cytotoxicity against human THP-1 cells derived macrophage assessed as reduction in cell viability upto 40 uM incubated for 24 hrs by CCK-8 assay; type: toxicity, cell-based; conditions: thp-1, 24 h
RAW264.7 [3] = experiment: Antiinflammatory activity in mouse RAW264.7 assessed as inhibition of LPS-induced NO production incubated for 1 hrs followed by LPS stimulation for 18 hrs by Griess reagent based assay; type: functional, cell-based
THP-1 [4] = experiment: Antiinflammatory activity against PMA-differentiated human THP-1 cells assessed as reduction in IL-1beta level at 20 uM incubated for 1 hrs followed by LPS stimulation for 12 hrs and ATP addition for 0.5 hrs by ELISA; type: functional, cell-based; conditions: time 13.5 hrs

IC50 (RAW264.7 [3]): 8.85 µM
Compound: CC(=O)O[C@@H]1C[C@H]2C(C)(C)C(=O)C=C[C@]2(C)[C@H]2CC[C@@]3(C)[C@@H](c4ccoc4)OC(=O)[C@H]4O[C@]43[C@@]21C
Activity (RAW264.7 [1]): Toxic
Activity (J774.1): Toxic
Activity (THP-1 [2]): Toxic
Activity (THP-1 [4]): Active
